# Assay results from ChEMBL document CHEMBL4052811, “Design, synthesis and antiproliferative activity of novel substituted 2-amino-7,8-dihydropteridin-6(5H)-one derivatives” (Bioorg Med Chem Lett, 2017).
# Tests used:
# [1] = system: T47D; assay: Cytotoxicity against human T47D cells after 48 hrs by MTT assay; type: functional, cell-based
# [2] = system: MDA-MB-231; assay: Cytotoxicity against human MDA-MB-231 cells after 48 hrs by MTT assay; type: functional, cell-based; settings: MDA-MB-231, 48 h
# [3] = system: MDA-MB-468; assay: Cytotoxicity against human MDA-MB-468 cells after 48 hrs by MTT assay; type: functional, cell-based; settings: MDA-MB-468, 48 h
# [4] = system: BT-549; assay: Cytotoxicity against human BT549 cells after 48 hrs by MTT assay; type: functional, cell-based; settings: BT-549, 48 h
# [5] = system: T47D; assay: Cell cycle arrest in human T47D cells assessed as accumulation at S phase at 6 uM after 12 to 48 hrs by FACS analysis (reference value: 21.82%); type: functional
# [6] = system: T47D; assay: Cell cycle arrest in human T47D cells assessed as accumulation at G0/G1 phase at 6 uM after 12 to 48 hrs by FACS analysis (reference value: 59.67%); type: functional
# [7] = system: T47D; assay: Cell cycle arrest in human T47D cells assessed as accumulation at S phase at 12 uM after 12 to 48 hrs by FACS analysis (reference value: 21.82%); type: functional
# [8] = system: T47D; assay: Potency index, ratio of fluorouracil IC50 to compound IC50 for human T47D cells; type: functional
# [9] = system: BT-549; assay: Potency index, ratio of fluorouracil IC50 to compound IC50 for human BT549 cells; type: functional
# [10] = system: T47D; assay: Cell cycle arrest in human T47D cells assessed as accumulation at G2/M phase at 6 uM after 12 to 48 hrs by FACS analysis (reference value: 18.51%); type: functional
# [11] = system: T47D; assay: Cell cycle arrest in human T47D cells assessed as accumulation at S phase at 3 uM after 12 to 48 hrs by FACS analysis (reference value: 21.82%); type: functional
# [12] = system: MDA-MB-468; assay: Potency index, ratio of fluorouracil IC50 to compound IC50 for human MDA-MB-468 cells; type: functional
# [13] = system: T47D; assay: Cell cycle arrest in human T47D cells assessed as accumulation at G0/G1 phase at 3 uM after 12 to 48 hrs by FACS analysis (reference value: 59.67%); type: functional
# [14] = system: T47D; assay: Cell cycle arrest in human T47D cells assessed as accumulation at G0/G1 phase at 12 uM after 12 to 48 hrs by FACS analysis (reference value: 59.67%); type: functional
# [15] = system: T47D; assay: Cell cycle arrest in human T47D cells assessed as accumulation at G2/M phase at 3 uM after 12 to 48 hrs by FACS analysis (reference value: 18.51%); type: functional
# [16] = system: T47D; assay: Cell cycle arrest in human T47D cells assessed as accumulation at G2/M phase at 12 uM after 12 to 48 hrs by FACS analysis (reference value: 18.51%); type: functional
# [17] = system: T47D; assay: Cell cycle arrest in human T47D cells assessed as accumulation at G1 phase after 12 to 48 hrs by FACS analysis; type: functional, cell-based
SMILES,IC50 [1] [µM],IC50 [2] [µM],IC50 [3] [µM],IC50 [4] [µM],other results
O=c1[nH]cc(F)c(=O)[nH]1 [FLUOROURACIL],171,53.5,95.7,98.2,
COc1cccc(CNc2ncc3c(n2)N(Cc2ccccc2)CC(=O)N3)c1,15.3,47,23.2,15.6,
CCOC(=O)CNc1ncc2c(n1)N(Cc1ccccc1)CC(=O)N2,> 100,> 100,> 100,> 100,
O=C1CNc2nc(Nc3ccc(Cl)cc3)ncc2N1,29.3,41.6,15,17.7,
COc1cc(Nc2ncc3c(n2)N(Cc2ccccc2)CC(=O)N3)cc(OC)c1OC,8.76,10.6,> 100,12.8,
COc1cccc(Nc2ncc3c(n2)N(Cc2ccccc2)CC(=O)N3)c1,78.7,99.9,40.4,81.1,
COc1cccc(Nc2ncc3c(n2)NCC(=O)N3)c1,> 100,93.2,> 100,> 100,
COc1cc(Nc2ncc3c(n2)N(C)CC(=O)N3)cc(OC)c1OC,56.2,46.2,66.1,45.2,
CN1CC(=O)Nc2cnc(NCCc3ccccc3)nc21,23.2,34.2,56.2,41.2,
CN1CC(=O)Nc2cnc(Nc3ccc(Cl)cc3)nc21,36,> 100,31.3,91,
CN1CCN(Nc2ncc3c(n2)N(Cc2ccccc2)CC(=O)N3)CC1,79,98.3,> 100,98.3,
CCOC(=O)CN(Cc1ccccc1)c1nc(NCCc2ccccc2)ncc1[N+](=O)[O-],6.59,24.2,6.26,13.7,
O=C1CN(Cc2ccccc2)c2nc(NCCc3ccccc3)ncc2N1,6.37,22.4,7.75,10.7,Activity [5]: 10.8%; Activity [6]: 72.7%; Activity [7]: 4.34%; Ratio IC50 [8]: 11; Ratio IC50 [9]: 8; Activity [10]: 16.5%; Activity [11]: 18.98%; Ratio IC50 [12]: 49; Activity [13]: 61.25%; Activity [14]: 74.68%; Activity [15]: 19.76%; Activity [16]: 20.98%; Activity [17]: Dose-dependent effect
O=C1CNc2nc(Nc3ccc(F)cc3)ncc2N1,> 100,> 100,> 100,92.4,
CS(=O)(=O)N1CCC(Nc2ncc3c(n2)N(Cc2ccccc2)CC(=O)N3)CC1,> 100,> 100,97.4,> 100,
O=C1CNc2nc(Nc3ccccc3)ncc2N1,85.4,> 100,> 100,> 100,
CN1CC(=O)Nc2cnc(Nc3ccccc3)nc21,> 100,> 100,> 100,> 100,
CN1CC(=O)Nc2cnc(NCc3ccccc3)nc21,89.7,92,94.4,78.8,
O=C1CN(Cc2ccccc2)c2nc(Nc3ccccc3)ncc2N1,15.2,37,20.6,11.9,
COc1ccc(Nc2ncc3c(n2)NCC(=O)N3)cc1,89.2,> 100,> 100,95,
COc1cccc(Nc2ncc3c(n2)N(C)CC(=O)N3)c1,> 100,> 100,> 100,> 100,
O=C1CN(Cc2ccccc2)c2nc(Nc3ccc(Cl)cc3)ncc2N1,> 100,> 100,> 100,> 100,
